Experimental data reported in patent US11787800B2, “BRD9 degraders and uses thereof” (Foghorn Therapeutics Inc., priority 2020, dated 2023).

Experiments:
Assay type in all cases: cell-based
[1] = system: synovial sarcoma cell lines (SYO1, Yamato, HS-SY-II, and ASKA); experiment: Growth of synovial sarcoma cell lines (IncuCyte confluency, crystal violet staining, colony imaging), Example 3; settings: FIGS. 5, 6, 7, 1 μM in crystal violet assay
Procedure: (§1) Growth medium and compounds were refreshed every 3-4 days.
(§2) The number of cells was optimized for each cell line. Growth medium and compounds were refreshed every 3-5 days. SYO1, Yamato, A549, 293T and HS-SY-II cells were fixed and stained at day 11. ASKA cells were fixed and stained at day 23. Staining was done by incubation with crystal violet solution (0.5 g Crystal Violet, 27 ml 37% Formaldehyde, 100 mL 10×PBS, 10 mL Methanol, 863 dH20 to 1 L) for 30 min followed by 3× washes with water and drying the plates for at least 24 h at room temperature. Subsequently plates were scanned on an Odyssey CLx Imaging system (FIG. 6).
(§3) Cells were seeded into 96-well ultra low cluster plate (Costar, #7007) in 200 μL complete media and treated at day 2 with DMSO, Staurosporin, or BRD9 degarder, Compound 1, at indicated doses (FIG. 7). Media and compounds were changed every 5 d and cell colonies were imaged at day 14.

[2] = system: non-synovial control cancer cell lines (293T, A549, G401); experiment: Growth of non-synovial control cancer cell lines, Example 3; settings: FIGS. 5, 6, 7
Procedure: as §1, §2, §3

[3] = system: synovial sarcoma cell lines (SYO1, HS-SY-II, and ASKA); experiment: Crystal violet growth assay, day 14, synovial sarcoma cell lines, Example 4; settings: for growth of synovial sarcoma cell lines: SYO1, HS-SY-II, ASKA, daily treatment, day 14, crystal violet, FIGS. 8 and 9
Procedure: (§4) Procedure: Cells were seeded into 6-well or 12-well plates and were treated daily with a BRD9 degrader (Compound 1), a bromo-domain BRD9 binder (Compound 2), E3 ligase binder (lenalidomide), DMSO, or staurosporin (positive control for cell killing), at indicated concentrations. The number of cells was optimized for each cell line. Growth media was refreshed every 5 days. By day 14, medium was removed, cells were washed with PBS, and stained using 500 μL of 0.005% (w/v) crystal violet solution in 25% (v/v) methanol for at least 1 hour at room temperature. Subsequently plates were scanned on an Odyssey CLx Imaging system.

[4] = system: non-synovial control cancer cell lines (RD, HCT116, and Calu6); experiment: Crystal violet growth assay, day 14, non-synovial control cancer cell lines, Example 4; settings: daily treatment, day 14, crystal violet, FIGS. 8 and 9
Procedure: as §4

SYO1 cells [5] = experiment: Cell cycle analysis, Click-iT Plus EdU Flow Cytometry Assay; settings: 200 nM or 1 μM, 8 or 13 days, compared to DMSO and lenalidomide
Procedure: (§5) Compounds were refreshed every 5 days. Cell cycle analysis was performed using the Click-iT™ Plus EdU Flow Cytometry Assay (Invitrogen). The apoptosis assay was performed using the Annexin V-FITC Apoptosis Detection Kit (Sigma A9210). Assays were performed according to the manufacturer's protocol.

SYO1 cells [6] = experiment: Apoptosis assay, Annexin V-FITC Apoptosis Detection Kit; settings: 200 nM or 1 μM, 8 days, compared to DMSO controls
Procedure: as §5

| Compound | growth of synovial sarcoma cell lines [1] | growth of non-synovial control cancer cell lines [2] | growth of synovial sarcoma cell lines [3] | growth inhibition compared among the test agents ([3]; all synovial cell lines) | growth of non-synovial control cancer cell lines [4] | numbers of cells in the S-phase of the cell cycle (SYO1 cells [5]) | numbers of early- and late-apoptotic cells (SYO1 cells [6]) |
| --- | --- | --- | --- | --- | --- | --- | --- |
| COc1cc(-c2cn(C)c(=O)c3cnccc23)cc(OC)c1CN(C)CC(=O)NCCOCCOCCNc1cccc2c1C(=O)N(C1CCC(=O)NC1=O)C2=O (centres unmarked) [Compound A] | inhibition of the growth of the cells | does not result in inhibition of the growth | inhibition of the growth of the cells | most significant growth inhibition | did not result in inhibition of the growth | reduced numbers of cells in the S-phase | increased numbers of early- and late-apoptotic cells |
| COc1cc(-c2cn(C)c(=O)c3cnccc23)cc(OC)c1CN(C)C [Compound B] | inhibition of the growth of the cells | does not result in inhibition of the growth | inhibition of the growth of the cells | – | did not result in inhibition of the growth | – | – |
